Patent publication US20170037028A1 (BAYER PHARMA AKTIENGESELLSCHAFT, priority 2013, published 2017)

Molecular target: T1, GLUT1 (Homo sapiens, UniProt P11166)
T1 sequence (P11166 1-492): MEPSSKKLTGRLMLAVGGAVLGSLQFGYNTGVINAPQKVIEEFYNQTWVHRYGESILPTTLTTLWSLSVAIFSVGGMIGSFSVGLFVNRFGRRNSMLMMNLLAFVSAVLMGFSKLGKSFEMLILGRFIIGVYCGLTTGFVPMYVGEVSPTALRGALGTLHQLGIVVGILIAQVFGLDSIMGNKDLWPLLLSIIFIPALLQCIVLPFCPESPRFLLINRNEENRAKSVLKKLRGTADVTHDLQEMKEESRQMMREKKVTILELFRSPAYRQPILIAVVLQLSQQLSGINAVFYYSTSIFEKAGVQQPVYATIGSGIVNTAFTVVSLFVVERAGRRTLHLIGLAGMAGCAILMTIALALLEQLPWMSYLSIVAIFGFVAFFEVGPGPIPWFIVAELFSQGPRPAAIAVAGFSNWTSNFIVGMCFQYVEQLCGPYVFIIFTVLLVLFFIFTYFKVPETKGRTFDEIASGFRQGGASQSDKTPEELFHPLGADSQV
Assay: Indirect measurement of GLUT1 activity by quantification of intracellular ATP levels (glucose induced ATP increase)
Type: cell-based
Design: endogenous in cells; host or cells: DLD1 or CHO-K1
Settings: read-out: IC50 regarding glucose induced ATP increase (GLUT1 inhibition)
Source text: Indirect Measurement of GLUT1 and GLUT2 Activity by Quantification of Intracellular ATP Levels
It is well known that a combination of small-molecule inhibitors of mitochondrial electron transport chain and glucose catabolism synergistically suppress ATP production and impair cellular viability (Ulanovskaya et al., 2008, 2011; Liu, et al. 2001). We therefore used DLD1 or CHO-K1 cells in combination with an oxidative phosphorylation inhibitor to identify GLUT1 and GLUT2 inhibitors. Cell lines were maintained in DMEM medium supplemented with 10% FCS and 1% Penicillin-Streptomycin solution and 2% Glutamax. The cells were treated with trypsin and seeded into 384 plates at a density of 4000 cells/well. The cells were then cultured overnight in glucose free media containing 1% FCS to reduce intracellular ATP levels. […] The CellTiter-Glo® Luminescent Cell Viability Assay from Promega was then used to measure ATP Levels.

Row | IC50 [nM] | Compound
1 | 5.4 | COc1ccc(Cn2nc(C)c(NC(=O)c3cc(C(F)(F)F)nc4c(Cl)cc(Cl)cc34)c2C)cc1 [Example 8, 6,8-dichloro-N-[1-(4-methoxybenzyl)-3,5-dimethyl-1H-pyrazol-4-yl]-2-(trifluoromethyl)quinoline-4-carboxamide]
2 | 6.6 | Cc1nn(Cc2ccc(C#N)cc2)c(C)c1NC(=O)c1cc(C(F)(F)F)nc2c(Cl)cc(Cl)cc12 [Example 11, 6,8-dichloro-N-[1-(4-cyanobenzyl)-3,5-dimethyl-1H-pyrazol-4-yl]-2-(trifluoromethyl)quinoline-4-carboxamide]
3 | 11.5 | Cc1nn(Cc2ccc(F)cc2)c(C)c1NC(=O)c1cc(C(F)(F)F)nc2ccc(Cl)cc12 [Example 14, 6-chloro-N-[1-(4-fluorobenzyl)-3,5-dimethyl-1H-pyrazol-4-yl]-2-(trifluoromethyl)quinoline-4-carboxamide]
4 | 12.4 | Cc1nn(Cc2ccc(F)cc2)c(C)c1NC(=O)c1cc(C(F)(F)F)nc2c(Br)cccc12 [Example 18, 8-bromo-N-[1-(4-fluorobenzyl)-3,5-dimethyl-1H-pyrazol-4-yl]-2-(trifluoromethyl)quinoline-4-carboxamide]
5 | 12.7 | Cc1nn(Cc2c(F)cccc2F)c(C)c1NC(=O)c1cc(C(F)(F)F)nc2c(Cl)cc(Cl)cc12 [Example 20, 6,8-dichloro-N-[1-(2,6-difluorobenzyl)-3,5-dimethyl-1H-pyrazol-4-yl]-2-(trifluoromethyl)quinoline-4-carboxamide]
6 | 14.8 | Cc1cc(Br)c2nc(C(F)(F)F)cc(C(=O)Nc3c(C)nn(Cc4ccc(F)cc4)c3C)c2c1 [Example 21, 8-bromo-N-[1-(4-fluorobenzyl)-3,5-dimethyl-1H-pyrazol-4-yl]-6-methyl-2-(trifluoromethyl)quinoline-4-carboxamide]
7 | 15.4 | Cc1nn(Cc2ccc(F)cc2)c(C)c1NC(=O)c1cc(C(F)(F)F)nc2ccc(Cl)c(Cl)c12 [Example 22, 5,6-dichloro-N-[1-(4-fluorobenzyl)-3,5-dimethyl-1H-pyrazol-4-yl]-2-(trifluoromethyl)quinoline-4-carboxamide]
8 | 15.5 | Cc1ccccc1Cn1nc(C)c(NC(=O)c2cc(C(F)(F)F)nc3ccc(Br)cc23)c1C [Example 24, 6-bromo-N-[3,5-dimethyl-1-(2-methylbenzyl)-1H-pyrazol-4-yl]-2-(trifluoromethyl)quinoline-4-carboxamide]
9 | 15.7 | Cc1nn(Cc2ccc(F)cc2)c(C)c1NC(=O)c1cc(C(F)(F)F)nc2c(Cl)cc(Cl)cc12 [Example 25, 6,8-dichloro-N-[1-(4-fluorobenzyl)-3,5-dimethyl-1H-pyrazol-4-yl]-2-(trifluoromethyl)quinoline-4-carboxamide]
10 | 16.8 | Cc1cccc(Cn2nc(C)c(NC(=O)c3cc(C(F)(F)F)nc4c(Cl)cc(Cl)cc34)c2C)c1 [Example 28, 6,8-dichloro-N-[3,5-dimethyl-1-(3-methylbenzyl)-1H-pyrazol-4-yl]-2-(trifluoromethyl)quinoline-4-carboxamide]
11 | 19 | Cc1nn(Cc2ccc(F)cc2)c(C)c1NC(=O)c1cc(C(F)(F)F)nc2cc(F)ccc12 [Example 29, 7-fluoro-N-[1-(4-fluorobenzyl)-3,5-dimethyl-1H-pyrazol-4-yl]-2-(trifluoromethyl)quinoline-4-carboxamide]
12 | 19.5 | Cc1nn(Cc2ccc(F)cc2)c(C)c1NC(=O)c1cc(C(F)(F)F)nc2ccc(F)cc12 [Example 30, 6-fluoro-N-[1-(4-fluorobenzyl)-3,5-dimethyl-1H-pyrazol-4-yl]-2-(trifluoromethyl)quinoline-4-carboxamide]
13 | 20 | Cc1ccc(Cn2nc(C)c(NC(=O)c3cc(C(F)(F)F)nc4c(Cl)cc(Cl)cc34)c2C)cc1 [Example 31, 6,8-dichloro-N-[3,5-dimethyl-1-(4-methylbenzyl)-1H-pyrazol-4-yl]-2-(trifluoromethyl)quinoline-4-carboxamide]
14 | 25 | Cc1nn(Cc2ccccc2)c(C)c1NC(=O)c1cc(C(F)(F)F)nc2ccc(Br)cc12 [Example 33, N-(1-benzyl-3,5-dimethyl-1H-pyrazol-4-yl)-6-bromo-2-(trifluoromethyl)quinoline-4-carboxamide]

Further lines, the compound ahead of its results:

Row | Compound | IC50 [nM]
15 | Cc1nn(Cc2ccc(F)cc2)c(C)c1NC(=O)c1cc(C(C)C)nc2ccc(Br)cc12 [Example 2, 6-bromo-N-[1-(4-fluorobenzyl)-3,5-dimethyl-1H-pyrazol-4-yl]-2-(propan-2-yl)quinoline-4-carboxamide] | 2.8
16 | COc1ccc(Cn2nc(C)c(NC(=O)c3cc(C(F)(F)F)nc4ccc(Br)cc34)c2C)cc1 [Example 3, 6-bromo-N-[1-(4-methoxybenzyl)-3,5-dimethyl-1H-pyrazol-4-yl]-2-(trifluoromethyl)quinoline-4-carboxamide] | 3.1
17 | COc1ccc(Cn2nc(C)c(NC(=O)c3cc(C)nc4ccc(C)cc34)c2C)cc1 [Example 4, N-[1-(4-methoxybenzyl)-3,5-dimethyl-1H-pyrazol-4-yl]-2,6-dimethylquinoline-4-carboxamide] | 3.8
18 | Cc1nn(Cc2ccccc2C#N)c(C)c1NC(=O)c1cc(C(F)(F)F)nc2ccc(Br)cc12 [Example 6, 6-bromo-N-[1-(2-cyanobenzyl)-3,5-dimethyl-1H-pyrazol-4-yl]-2-(trifluoromethyl)quinoline-4-carboxamide] | 4.7
19 | Cc1ccc2nc(C3CC3)cc(C(=O)Nc3c(C)nn(Cc4ccc(F)cc4)c3C)c2c1 [Example 7, 2-cyclopropyl-N-[1-(4-fluorobenzyl)-3,5-dimethyl-1H-pyrazol-4-yl]-6-methylquinoline-4-carboxamide] | 4.9
20 | Cc1nn(Cc2ccc(F)cc2)c(C)c1NC(=O)c1cc(C(F)(F)F)nc2ccc(Br)cc12 [Example 9, 6-bromo-N-[1-(4-fluorobenzyl)-3,5-dimethyl-1H-pyrazol-4-yl]-2-(trifluoromethyl)quinoline-4-carboxamide] | 6.2
21 | Cc1nn(Cc2ccc(F)cc2)c(C)c1NC(=O)c1cc(C2CC2)nc2ccc(F)cc12 [Example 10, 2-cyclopropyl-6-fluoro-N-[1-(4-fluorobenzyl)-3,5-dimethyl-1H-pyrazol-4-yl]quinoline-4-carboxamide] | 6.4
22 | Cc1nn(Cc2ccc(F)cc2)c(C)c1NC(=O)c1cc(C2CC2)nc2ccc(Br)cc12 [Example 12, 6-bromo-2-cyclopropyl-N-[1-(4-fluorobenzyl)-3,5-dimethyl-1H-pyrazol-4-yl]quinoline-4-carboxamide] | 7.7
23 | Cc1nn(Cc2c(F)cccc2F)c(C)c1NC(=O)c1cc(C(F)(F)F)nc2ccc(Br)cc12 [Example 13, 6-bromo-N-[1-(2,6-difluorobenzyl)-3,5-dimethyl-1H-pyrazol-4-yl]-2-(trifluoromethyl)quinoline-4-carboxamide] | 11.3
24 | Cc1nn(Cc2ccc(F)cc2)c(C)c1NC(=O)c1cc(C2CC2)nc2c(Br)cccc12 [Example 16, 8-bromo-2-cyclopropyl-N-[1-(4-fluorobenzyl)-3,5-dimethyl-1H-pyrazol-4-yl]quinoline-4-carboxamide] | 12.1
25 | COc1cc(C(=O)Nc2c(C)nn(Cc3ccc(F)cc3F)c2C)c2ccccc2n1 [Example 17, N-[1-(2,4-difluorobenzyl)-3,5-dimethyl-1H-pyrazol-4-yl]-2-methoxyquinoline-4-carboxamide] | 12.2
26 | Cc1nn(Cc2ccc(F)cc2)c(C)c1NC(=O)c1cc(C2CC2)nc2ccccc12 [Example 19, 2-cyclopropyl-N-[1-(4-fluorobenzyl)-3,5-dimethyl-1H-pyrazol-4-yl]quinoline-4-carboxamide] | 12.7
27 | COc1cc(C(=O)Nc2c(C)nn(Cc3ccc(OC(F)(F)F)cc3)c2C)c2ccccc2n1 [Example 23, N-{3,5-dimethyl-1-[4-(trifluoromethoxy)benzyl]-1H-pyrazol-4-yl}-2-methoxyquinoline-4-carboxamide] | 15.4
28 | Cc1nn(Cc2ccc(F)cc2)c(C)c1NC(=O)c1cc(C(F)(F)F)nc2cccc(F)c12 [Example 26, 5-fluoro-N-[1-(4-fluorobenzyl)-3,5-dimethyl-1H-pyrazol-4-yl]-2-(trifluoromethyl)quinoline-4-carboxamide] | 15.7
29 | COc1cc(C(=O)Nc2c(C)nn(Cc3ccc(F)cc3)c2C)c2ccccc2n1 [Example 27, N-[1-(4-fluorobenzyl)-3,5-dimethyl-1H-pyrazol-4-yl]-2-methoxyquinoline-4-carboxamide] | 16.5
30 | Cc1c(NC(=O)c2cc(C(F)(F)F)nc3ccc(Br)cc23)c(C(F)(F)F)nn1Cc1ccc(F)cc1 [Example 32, 6-bromo-N-[1-(4-fluorobenzyl)-5-methyl-3-(trifluoromethyl)-1H-pyrazol-4-yl]-2-(trifluoromethyl)quinoline-4-carboxamide] | 20.5
